From ChEMBL document CHEMBL5291721, “A preclinical secondary pharmacology resource illuminates target-adverse drug reaction associations of marketed drugs” (Nat Commun, 2023)

Columns and labels:
[1] = target: 5-hydroxytryptamine receptor 2B (Homo sapiens, UniProt P41595)
Progesterone receptor = target: T1, Progesterone receptor (Homo sapiens, UniProt P06401)
T1 sequence (P06401 whole entry): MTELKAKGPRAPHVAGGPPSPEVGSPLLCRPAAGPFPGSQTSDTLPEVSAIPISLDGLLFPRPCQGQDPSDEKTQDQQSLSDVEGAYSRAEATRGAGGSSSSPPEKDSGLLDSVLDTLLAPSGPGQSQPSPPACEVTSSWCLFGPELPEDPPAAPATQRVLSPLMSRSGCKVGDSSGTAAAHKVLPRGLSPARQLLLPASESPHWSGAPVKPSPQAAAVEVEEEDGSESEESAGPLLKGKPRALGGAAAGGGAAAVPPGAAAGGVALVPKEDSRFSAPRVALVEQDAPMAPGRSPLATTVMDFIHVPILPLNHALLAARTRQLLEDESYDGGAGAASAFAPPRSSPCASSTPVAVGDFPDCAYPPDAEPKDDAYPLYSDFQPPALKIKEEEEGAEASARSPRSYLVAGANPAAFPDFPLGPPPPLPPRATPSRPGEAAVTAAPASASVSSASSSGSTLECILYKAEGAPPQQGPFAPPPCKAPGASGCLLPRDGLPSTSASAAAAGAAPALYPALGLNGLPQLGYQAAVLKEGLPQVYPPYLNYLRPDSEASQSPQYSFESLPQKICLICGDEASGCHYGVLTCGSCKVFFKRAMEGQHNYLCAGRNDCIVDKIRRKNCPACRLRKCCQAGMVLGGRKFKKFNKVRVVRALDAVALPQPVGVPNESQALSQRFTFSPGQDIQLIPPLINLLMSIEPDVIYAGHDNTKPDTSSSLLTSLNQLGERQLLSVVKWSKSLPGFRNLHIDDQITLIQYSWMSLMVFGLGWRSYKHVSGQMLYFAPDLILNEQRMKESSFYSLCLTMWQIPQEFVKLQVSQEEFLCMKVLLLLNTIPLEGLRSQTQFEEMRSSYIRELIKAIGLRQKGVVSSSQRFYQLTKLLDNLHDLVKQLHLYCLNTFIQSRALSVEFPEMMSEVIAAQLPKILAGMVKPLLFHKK

B1 bradykinin receptor = target: T2, B1 bradykinin receptor (Homo sapiens, UniProt P46663)
T2 sequence (P46663 whole entry): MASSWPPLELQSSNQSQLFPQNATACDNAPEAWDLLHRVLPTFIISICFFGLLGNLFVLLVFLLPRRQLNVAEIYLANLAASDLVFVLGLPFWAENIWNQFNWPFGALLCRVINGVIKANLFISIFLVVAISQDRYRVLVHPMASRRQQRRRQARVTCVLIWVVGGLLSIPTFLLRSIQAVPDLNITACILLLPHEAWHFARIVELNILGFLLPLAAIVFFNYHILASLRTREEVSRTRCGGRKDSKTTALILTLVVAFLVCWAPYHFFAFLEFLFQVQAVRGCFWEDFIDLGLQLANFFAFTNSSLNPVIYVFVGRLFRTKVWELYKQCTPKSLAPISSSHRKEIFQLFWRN

[2] = target: T3, Neuropeptide Y receptor type 2 (Homo sapiens, UniProt P49146)
T3 sequence (P49146 whole entry): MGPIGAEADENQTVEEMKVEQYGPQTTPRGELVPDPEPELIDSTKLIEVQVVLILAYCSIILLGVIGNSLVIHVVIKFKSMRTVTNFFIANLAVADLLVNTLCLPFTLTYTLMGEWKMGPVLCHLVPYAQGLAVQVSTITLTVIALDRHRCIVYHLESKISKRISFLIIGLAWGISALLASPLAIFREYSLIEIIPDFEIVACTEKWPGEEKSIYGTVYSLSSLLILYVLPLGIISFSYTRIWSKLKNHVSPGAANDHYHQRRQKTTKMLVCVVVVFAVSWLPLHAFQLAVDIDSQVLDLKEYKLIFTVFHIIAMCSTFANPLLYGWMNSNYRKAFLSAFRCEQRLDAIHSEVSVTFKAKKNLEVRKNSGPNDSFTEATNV

Glucagon receptor = Glucagon receptor (Homo sapiens, UniProt P47871)
[3] = target: T4, Gastric inhibitory polypeptide receptor (Homo sapiens, UniProt P48546)
T4 sequence (P48546 whole entry): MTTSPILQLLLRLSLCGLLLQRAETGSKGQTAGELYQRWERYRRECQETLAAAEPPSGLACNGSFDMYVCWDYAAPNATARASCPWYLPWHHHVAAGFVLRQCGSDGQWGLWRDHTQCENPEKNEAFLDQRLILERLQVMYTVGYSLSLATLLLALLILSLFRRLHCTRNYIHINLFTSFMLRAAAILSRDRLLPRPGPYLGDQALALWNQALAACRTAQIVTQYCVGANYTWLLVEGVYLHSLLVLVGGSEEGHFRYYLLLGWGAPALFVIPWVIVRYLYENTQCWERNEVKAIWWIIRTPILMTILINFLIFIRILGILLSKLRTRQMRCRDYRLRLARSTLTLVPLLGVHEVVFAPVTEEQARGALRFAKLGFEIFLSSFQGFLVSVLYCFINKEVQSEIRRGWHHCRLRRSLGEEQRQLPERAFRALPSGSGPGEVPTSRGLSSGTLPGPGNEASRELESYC

[4] = target: T5, Corticotropin-releasing factor receptor 1 (Homo sapiens, UniProt P34998)
T5 sequence (P34998 whole entry): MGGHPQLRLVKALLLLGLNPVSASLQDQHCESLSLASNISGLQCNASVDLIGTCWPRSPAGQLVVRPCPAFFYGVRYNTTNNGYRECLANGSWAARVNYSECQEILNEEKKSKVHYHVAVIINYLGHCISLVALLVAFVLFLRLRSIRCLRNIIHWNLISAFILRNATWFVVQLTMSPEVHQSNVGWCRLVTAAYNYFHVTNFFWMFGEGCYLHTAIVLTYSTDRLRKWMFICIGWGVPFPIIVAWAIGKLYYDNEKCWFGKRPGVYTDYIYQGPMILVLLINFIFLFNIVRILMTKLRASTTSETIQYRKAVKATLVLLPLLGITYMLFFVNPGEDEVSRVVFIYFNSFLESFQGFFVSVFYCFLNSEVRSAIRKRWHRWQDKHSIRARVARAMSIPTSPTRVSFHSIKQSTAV

[5] = target: Neurotensin receptor type 1 (Homo sapiens, UniProt P30989)
Note: assay procedure not described here.

Chain of Glucagon receptor (P47871 whole entry): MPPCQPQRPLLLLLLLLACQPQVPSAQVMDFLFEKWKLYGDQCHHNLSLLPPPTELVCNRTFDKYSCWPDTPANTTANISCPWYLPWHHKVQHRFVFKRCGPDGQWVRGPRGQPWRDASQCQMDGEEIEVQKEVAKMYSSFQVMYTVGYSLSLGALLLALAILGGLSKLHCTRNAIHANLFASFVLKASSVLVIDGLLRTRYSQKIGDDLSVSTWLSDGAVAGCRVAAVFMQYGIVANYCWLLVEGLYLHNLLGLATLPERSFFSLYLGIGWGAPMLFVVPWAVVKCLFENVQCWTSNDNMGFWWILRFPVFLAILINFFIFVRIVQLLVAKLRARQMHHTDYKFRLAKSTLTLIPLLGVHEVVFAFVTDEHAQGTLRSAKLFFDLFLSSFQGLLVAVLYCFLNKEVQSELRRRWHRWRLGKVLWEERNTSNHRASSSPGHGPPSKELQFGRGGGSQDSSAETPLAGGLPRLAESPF
Chain of Neurotensin receptor type 1 (P30989 whole entry): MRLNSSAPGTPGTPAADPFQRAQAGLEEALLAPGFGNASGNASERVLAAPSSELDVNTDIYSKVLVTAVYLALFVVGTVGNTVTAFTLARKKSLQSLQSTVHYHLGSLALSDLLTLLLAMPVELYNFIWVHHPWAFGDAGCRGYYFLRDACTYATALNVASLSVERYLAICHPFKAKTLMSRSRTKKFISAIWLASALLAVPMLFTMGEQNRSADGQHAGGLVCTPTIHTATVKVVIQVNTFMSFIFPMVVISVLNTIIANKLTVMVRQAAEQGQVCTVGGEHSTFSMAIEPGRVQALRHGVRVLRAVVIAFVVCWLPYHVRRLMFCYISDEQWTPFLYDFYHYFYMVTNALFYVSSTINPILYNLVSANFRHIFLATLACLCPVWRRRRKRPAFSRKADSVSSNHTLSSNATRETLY
Chain of 5-hydroxytryptamine receptor 2B (P41595 whole entry): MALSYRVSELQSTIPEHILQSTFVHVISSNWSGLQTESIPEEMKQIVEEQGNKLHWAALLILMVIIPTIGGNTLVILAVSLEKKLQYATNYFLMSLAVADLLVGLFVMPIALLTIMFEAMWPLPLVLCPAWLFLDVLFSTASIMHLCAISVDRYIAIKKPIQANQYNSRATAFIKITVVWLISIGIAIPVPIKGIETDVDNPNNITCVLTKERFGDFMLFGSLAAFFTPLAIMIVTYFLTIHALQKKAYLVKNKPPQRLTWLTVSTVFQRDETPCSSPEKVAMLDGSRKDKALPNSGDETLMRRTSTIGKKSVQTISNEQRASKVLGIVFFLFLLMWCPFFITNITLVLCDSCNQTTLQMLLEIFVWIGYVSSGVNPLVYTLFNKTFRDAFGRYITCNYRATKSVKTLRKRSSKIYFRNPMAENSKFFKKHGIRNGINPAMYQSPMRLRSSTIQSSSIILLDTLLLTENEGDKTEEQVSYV

Structure (SMILES) | AC50 [1] | AC50 (Progesterone receptor) | AC50 (B1 bradykinin receptor) | AC50 [2] | AC50 (Glucagon receptor) | AC50 [3] | AC50 [4] | AC50 [5]
[H]/N=C(/N)N/C(=N/[H])NCCc1ccccc1 [PHENFORMIN] | 8.9 µM | > 30 µM | > 30 µM | > 30 µM | > 30 µM | > 30 µM | > 30 µM | > 30 µM
CC(C)NCC(O)c1ccc(O)c(O)c1 (configuration not stated) [ISOPROTERENOL] | > 10 µM | > 30 µM | > 30 µM | > 30 µM | > 30 µM | > 30 µM | > 30 µM | > 30 µM
CC(N)C(O)c1ccccc1 (configuration not stated) [PHENYLPROPANOLAMINE] | > 10 µM | > 30 µM | > 30 µM | > 30 µM | > 30 µM | > 30 µM | > 30 µM | > 30 µM
CCOC(=O)C1=C(C)NC(C)=C(C(=O)OC)C1c1cccc([N+](=O)[O-])c1 (configuration not stated) [NITRENDIPINE] | > 10 µM | > 30 µM | > 30 µM | > 30 µM | > 30 µM | > 30 µM | > 30 µM | > 30 µM
